According to PMC11200018 (2024):

Legend:
[1] = system: TelQD31 (DNA, G4) GGGCGCGAAGCATTCGCGGGGTTAGGGTGGG; assay: NMR titration; conditions: 120 mM K+; 120 mM K+ buffer, pH 7.0; binding at quadruplex-duplex junction
[2] = system: 32BrTelQD (DNA, G4, 8-bromo-2'-deoxyguanosine at 32) GGGCGCGAAGCATTCGCGGGGTTAGGGTTAGGG; assay: NMR titration and induced CD; conditions: 120 mM K+; 120 mM K+ buffer, pH 7.0; incomplete refolding, polymorphic complex
[3] = system: TelQD (DNA, G4) GGGCGCGAAGCATTCGCGGGGTTAGGGTTAGGG; assay: NMR solution structure; conditions: 120 mM K+; 20 mM potassium phosphate, 100 mM KCl, pH 7.0, 25 °C; refolds to (3+1) hybrid-2

binding [1]: yes | binding [2]: yes | binding [3]: yes
SMILES: C[n+]1cc(NC(=O)c2ccc3ccc4ccc(C(=O)Nc5cc6ccccc6[n+](C)c5)nc4c3n2)cc2ccccc21
